According to US10544095B2 (Pfizer Inc., priority 2015, dated 2020):

Assays:
[1] = target: hTDO2 in human glioblastoma A172 cells (Homo sapiens (Human), UniProt P48775); assay: Cellular assay for TDO2 activity determination in A172 cells; format: cell-based; details: overnight incubation, kynurenine absorbance at 480 nm
Outline: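 Glioblastoma A172 cells with endogenous hTDO2, 1.25×10^4 cells/well, incubated overnight at 37° C. with ten serial compound concentrations in IMDM with 2% FBS. Supernatant kynurenine, after TCA precipitation and 4-(dimethylamino)-benzaldehyde reaction, read at 480 nm against kynurenine standard curve; data curve-fitted.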

TDO2 = TDO2 (Mus musculus (Mouse), UniProt P48776); assay: Pharmacodynamic assay for TDO2 in vivo activity: increase of blood tryptophan levels in mice; details: female BALB/c mice, plasma after two hours
Experimental: The compounds of the present invention increase the amount of Tryptophan in mouse blood. Briefly, female BALB/c mice (7-8 weeks old) were treated with either a suspension of one of the compounds of the present invention in 0.5% hydroxypropyl methyl cellulose (HPMC) K4M (4000 mPa·s (cPs), Methocell™, Dow chemical)/0.25% Tween® 20 (Sigma Aldrich) at different doses (30, 60 and 100 mg/kg), or with a vehicle control (0.5% HPMC K4M/0.25% Tween 20), by the oral route by gavage (dosing volume 5 mL/kg, 10 mice per group). After two hours, blood was harvested, plasma was prepared and the amount of Tryptophan present was determined by LC-MS-MS (HPLC column Unison UK-Phenyl, 75×4.6, 3 μm, flow rate 0.8 mL/min, 8 minutes gradient from 95% water+0.1% formic acid/5% Acetonitrile+0.1% formic acid to 5% water+0.1% formic acid/95% Acetonitrile+0.1% formic acid, retention time 2.4 min; API4000 MS-MS system from AB Sciex, ESI+ mode, parent ion 205.1, daughter ion 146.1).

[2] = target: human recombinant TDO2 enzyme (Homo sapiens (Human), UniProt P48775); assay: Assay for TDO2 enzymatic activity determination; format: biochemical; details: human recombinant TDO2, L-Trp 1 mM, kynurenine absorbance at 480 nm
Experimental: The compounds of formula I, its subformulae, and enantiomers, salts and solvates thereof, are useful to inhibit the enzymatic activity of human TDO2. To measure the TDO2 activity, the procedure described in Dolusic et al. J. Med. Chem.; 2011, 54, […] was adapted: the reaction mixture contained (final concentrations) potassium phosphate buffer (50 mM, pH 7.5), ascorbic acid ([…]), methylene blue (0.125 μM), catalase (40 units/mL, from bovine liver, Sigma), and human recombinant TDO2 enzyme (prepared as described in Dolusic et al. J. Med. Chem.; 2011, 54, 5320-5334; 0.9 μg) without or with the compounds of the present invention at the indicated concentrations (total volume 112.5 μL). The reaction was initiated by the addition of 37.5 μL of L-Trp (final concentration 1 mM) at room temperature. The reaction was conducted at room temperature during one hour and stopped by the addition of 30 μL of 30% (w/v) trichloroacetic acid. To convert N-formylkynurenine into kynurenine, the reaction mixture was incubated at 65° C. for 30 min. […] Kynurenine concentrations were determined by measuring the absorbance at 480 nm. A standard curve was made with pure kynurenine. The TDO activity was measured as described above using ten serial concentrations of the compounds of the present invention. Data were fitted using the Prism™ software (GraphPad Software, Inc.) using standard parameters.

TDO2, sequence (P48776 whole entry): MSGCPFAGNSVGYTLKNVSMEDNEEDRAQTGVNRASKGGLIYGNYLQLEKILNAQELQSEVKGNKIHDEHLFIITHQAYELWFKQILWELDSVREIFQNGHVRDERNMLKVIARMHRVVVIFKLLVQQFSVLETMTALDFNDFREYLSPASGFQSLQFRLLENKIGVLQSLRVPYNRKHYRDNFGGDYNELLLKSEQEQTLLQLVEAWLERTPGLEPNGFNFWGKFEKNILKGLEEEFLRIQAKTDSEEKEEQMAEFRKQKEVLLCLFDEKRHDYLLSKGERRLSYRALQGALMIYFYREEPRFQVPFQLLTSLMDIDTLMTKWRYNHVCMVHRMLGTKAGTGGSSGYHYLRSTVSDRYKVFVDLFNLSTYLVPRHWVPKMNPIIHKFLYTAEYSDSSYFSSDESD
human recombinant TDO2 enzyme, sequence (P48775 whole entry): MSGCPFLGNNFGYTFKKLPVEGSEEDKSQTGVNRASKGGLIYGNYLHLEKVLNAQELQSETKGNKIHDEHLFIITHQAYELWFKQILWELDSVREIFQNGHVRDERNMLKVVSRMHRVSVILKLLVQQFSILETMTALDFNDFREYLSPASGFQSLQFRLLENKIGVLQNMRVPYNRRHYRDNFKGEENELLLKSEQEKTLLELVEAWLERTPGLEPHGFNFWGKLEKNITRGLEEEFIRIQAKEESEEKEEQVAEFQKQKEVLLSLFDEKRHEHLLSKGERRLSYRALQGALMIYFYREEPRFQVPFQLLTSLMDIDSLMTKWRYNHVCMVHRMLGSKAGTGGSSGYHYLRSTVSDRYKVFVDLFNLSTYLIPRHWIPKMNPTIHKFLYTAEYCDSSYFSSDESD
hTDO2 in human glioblastoma A172 cells, sequence (P48775 whole entry): as above

SMILES | IC50 [1] | IC50 [2] | further results
CC(=O)NCCNS(=O)(=O)c1ccc(-c2c[nH]c3cc(F)ccc23)cc1 [Example 16, N-(2-(4-(6-fluoro-1H-indol-3-yl)phenylsulfonamido)-ethyl)acetamide] | 0.18 µM |  | Trp in plasma (average ± standard error of the mean) (TDO2; 30 mg/kg oral gavage): 32700 ng/mL; Trp in plasma (average ± standard error of the mean) (TDO2; 60 mg/kg oral gavage): 35300 ng/mL; Trp in plasma (average ± standard error of the mean) (TDO2; 100 mg/kg oral gavage): 34000 ng/mL
O=S(=O)(c1ccc(-c2c[nH]c3cc(F)ccc23)cc1)N1CCN[C@H](CO)C1 [Example 18, (S)-(4-((4-(6-fluoro-1H-indol-3-yl)phenyl)sulfonyl)piperazin-2-yl)methanol] | 0.19 µM | 1.1 µM | increase of circulating Tryptophan compared to vehicle-treated controls (TDO2; 30 mg/kg oral gavage): 67%; increase of circulating Tryptophan compared to vehicle-treated controls (TDO2; 60 mg/kg oral gavage): 81%; increase of circulating Tryptophan compared to vehicle-treated controls (TDO2; 100 mg/kg oral gavage): 74%
CS(=O)(=O)CCNS(=O)(=O)c1ccc(-c2c[nH]c3cc(F)ccc23)cc1 [Example 88, 4-(6-fluoro-1H-indol-3-yl)-N-[2-(methylsulfonyl)ethyl]-benzene-sulfonamide] | 0.095 µM | 0.94 µM | 
O=C1CCN(S(=O)(=O)c2ccc(-c3c[nH]c4cc(F)ccc34)cc2)CCN1 [Example 90, 1-((4-(6-fluoro-1H-indol-3-yl)phenyl)sulfonyl)-1,4-diazepan-5-one] | 0.13 µM | 2 µM | 
C[C@@H](O)CNS(=O)(=O)c1ccc(-c2c[nH]c3cc(F)ccc23)cc1 [Example 93, (−)-(R)-4-(6-fluoro-1H-indol-3-yl)-N-(2-hydroxypropyl)-benzenesulfonamide] | 0.2 µM | 0.55 µM | 
C[C@H](O)CNS(=O)(=O)c1ccc(-c2c[nH]c3cc(F)ccc23)cc1 [Example 94, (+)-(S)-4-(6-fluoro-1H-indol-3-yl)-N-(2-hydroxypropyl)-benzenesulfonamide] | 0.3 µM | 0.84 µM | 
NC(=O)[C@H]1C[C@@H](NS(=O)(=O)c2ccc(-c3c[nH]c4cc(F)ccc34)cc2)C1 [Example 95, (cis)-3-(4-(6-fluoro-1H-indol-3-yl)phenylsulfon-amido)cyclobutanecarboxamide] | 0.14 µM | 1.3 µM | 
C[C@H](CO)NS(=O)(=O)c1ccc(-c2c[nH]c3cc(F)ccc23)cc1 [Example 96, 4-(6-fluoro-1H-indol-3-yl)-N-[(2R)-1-hydroxypropan-2-yl]benzenesulfonamide] | 0.16 µM | 1 µM | 
NC(=O)[C@H]1C[C@H](NS(=O)(=O)c2ccc(-c3c[nH]c4cc(F)ccc34)cc2)C1 [Example 97, (Trans)-3-(4-(6-fluoro-1H-indol-3-yl)phenyl-sulfonamido)cyclobutanecarboxamide] | 0.1 µM | 0.82 µM | 
CN(CCS(N)(=O)=O)S(=O)(=O)c1ccc(-c2c[nH]c3cc(F)ccc23)cc1 [Example 98, 4-(6-fluoro-1H-indol-3-yl)-N-methyl-N-(2-sulfamoylethyl)benzenesulfonamide] | 0.25 µM | 0.91 µM | 
O=S(=O)(NCCn1cncn1)c1ccc(-c2c[nH]c3cc(F)ccc23)cc1 [Example 99, 4-(6-fluoro-1H-indol-3-yl)-N-[2-(1H-1,2,4-triazol-1-yl)-ethyl]benzenesulfonamide] | 0.3 µM | 1.1 µM | 
O=S(=O)(c1ccc(-c2c[nH]c3cc(F)ccc23)cc1)N1CCC(O)(c2cncnc2)C1 (centres unmarked) [Example 120, 1-((4-(6-fluoro-1H-indol-3-yl)phenyl)sulfonyl)-3-(pyrimidin-5-yl)pyrrolidin-3-ol] | 0.12 µM | 0.12 µM | 
